Laboratory results: patent publication US9452980B2, “Substituted benzamides” (Hoffmann-La Roche Inc., priority 2009, dated 2016)
Where a name gives a salt, the structure may show the parent alone. Read-outs that look alike come from different tables or passages of the source.

Key:
rat TAAR1 = rat TAAR1 (Rattus norvegicus (Rat), UniProt Q923Y9); assay: Radioligand binding assay on rat TAAR1; conditions: read-out: Ki (μM) rat
In short: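 Membranes from HEK293 cells stably expressing rat TAAR1, with Kd checked per batch by saturation. Competition with ³H-(S)-4-[(ethyl-phenyl-amino)-methyl]-4,5-dihydro-oxazol-2-ylamine, compounds 10 pM–10 μM in duplicate, 1 hr at 4 °C. Filtration then scintillation counting; nonspecific binding defined with 10 μM unlabeled ligand.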

mouse TAAR1 = mouse TAAR1 (Mus musculus (Mouse), UniProt Q923Y8); assay: Radioligand binding assay on mouse TAAR1; conditions: read-out: Ki (μM) mouse
Chain of mouse TAAR1 (Q923Y8 whole entry): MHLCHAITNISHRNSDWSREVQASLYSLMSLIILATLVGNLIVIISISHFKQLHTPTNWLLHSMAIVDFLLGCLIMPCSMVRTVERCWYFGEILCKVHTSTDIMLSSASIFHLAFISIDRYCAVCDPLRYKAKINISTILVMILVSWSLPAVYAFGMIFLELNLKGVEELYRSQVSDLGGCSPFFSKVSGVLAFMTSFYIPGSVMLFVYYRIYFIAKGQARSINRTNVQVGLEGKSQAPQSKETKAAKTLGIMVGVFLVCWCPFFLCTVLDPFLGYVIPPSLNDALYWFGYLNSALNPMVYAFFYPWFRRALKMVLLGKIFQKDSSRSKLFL
In short: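 Membranes were from HEK293 cells stably expressing mouse TAAR1. Compounds from 10 pM to 10 μM, in duplicate, competed with [3H]-(S)-4-[(ethyl-phenyl-amino)-methyl]-4,5-dihydro-oxazol-2-ylamine for 1 h at 4 °C. Nonspecific binding was defined with 10 μM unlabelled ligand, and bound radioactivity was read by filtration and scintillation.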

[1] = mouse TAAR1, HEK-293 membranes, first value of cell mouse/rat
[2] = rat TAAR1, HEK-293 membranes, second value of cell mouse/rat

Chain of rat TAAR1 (Q923Y9 whole entry): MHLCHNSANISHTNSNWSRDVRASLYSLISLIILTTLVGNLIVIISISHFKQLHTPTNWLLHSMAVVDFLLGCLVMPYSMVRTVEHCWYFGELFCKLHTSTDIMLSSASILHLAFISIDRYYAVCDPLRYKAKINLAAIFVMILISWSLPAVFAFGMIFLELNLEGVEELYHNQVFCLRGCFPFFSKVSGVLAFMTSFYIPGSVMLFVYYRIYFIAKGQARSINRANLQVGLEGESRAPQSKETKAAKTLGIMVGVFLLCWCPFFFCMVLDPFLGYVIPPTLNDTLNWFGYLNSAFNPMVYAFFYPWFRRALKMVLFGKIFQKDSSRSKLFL

Compound	Ki (mouse TAAR1; [1])	Ki (rat TAAR1; [2])	Ki (rat TAAR1)	Ki (mouse TAAR1)
CSc1ccc(C(=O)Nc2ccc(C3CNCCO3)cc2)cc1 (racemic) [Example 216, (RS)-4-(Methylthio)-N-(4-(morpholin-2-yl)phenyl)benzamide hydrochloride]	0.0176 µM	–	0.0012 µM	–
O=C(Nc1ccc(C2CNCCO2)cc1)c1ccnc(Cl)c1 (racemic) [Example 218, (RS)-2-Chloro-N-(4-(morpholin-2-yl)phenyl)isonicotinamide hydrochloride]	0.0872 µM	0.0087 µM	–	–
CC(CO)(CCl)COc1ccc(C(=O)Nc2ccc(C3CNCCO3)cc2)cc1 (racemic) [Example 220, (RS)-4-(2-Chloromethyl-3-hydroxy-2-methyl-propoxy)-N-(4-morpholin-2-yl-phenyl)-benzamide]	0.0435 µM	0.0024 µM	–	–
O=C(Nc1ccc(C2CNCCO2)cc1)c1cc(Cl)nc(Cl)c1 (racemic) [Example 221, (RS)-2,6-Dichloro-N-(4-(morpholin-2-yl)phenyl)isonicotinamide hydrochloride]	–	–	0.0037 µM	0.005 µM
O=C(Nc1ccc(C2CNCCO2)cc1)c1ccc(OCC(F)(F)F)nc1 (racemic) [Example 222, (RS)—N-(4-(Morpholin-2-yl)phenyl)-6-(2,2,2-trifluoroethoxy)nicotinamide hydrochloride]	–	–	0.0033 µM	0.0037 µM
O=C(Nc1ccc(C2CNCCO2)cc1)c1cnc(-c2ccccc2)s1 (racemic) [Example 231, (RS)—N-(4-(Morpholin-2-yl)phenyl)-2-phenylthiazole-5-carboxamide hydrochloride]	–	0.0014 µM	–	0.0043 µM
O=C(Nc1ccc(C2CNCCO2)cc1)c1ccc(N2CCOCC2)nc1 (racemic) [Example 241, (RS)—N-(4-(Morpholin-2-yl)phenyl)-6-morpholinonicotinamide hydrochloride]	1.55 µM	0.116 µM	–	–
CO[C@H]1CC[C@@H](C(=O)Nc2ccc(C3CNCCO3)cc2)CC1 (mixture of isomers) [Example 254, cis-(RS)-4-Methoxy-N-(4-(morpholin-2-yl)phenyl)cyclohexanecarboxamide hydrochloride]	2.82 µM	0.726 µM	–	–
CO[C@H]1CC[C@H](C(=O)Nc2ccc(C3CNCCO3)cc2)CC1 (mixture of isomers) [Example 255, trans-(RS)-4-Methoxy-N-(4-(morpholin-2-yl)phenyl)cyclohexanecarboxamide hydrochloride]	5.1 µM	0.428 µM	–	–
O=C(Nc1ccc(C2CNCCO2)cc1)c1ccc(C(F)(F)F)nc1 (racemic) [Example 272, (RS)—N-(4-(Morpholin-2-yl)phenyl)-6-(trifluoromethyl)nicotinamide hydrochloride]	0.0214 µM	–	0.0169 µM	–
Cc1cc(C(=O)Nc2ccc(C3CNCCO3)cc2)cc(Cl)n1 (racemic) [Example 273, (RS)-2-Chloro-6-methyl-N-(4-(morpholin-2-yl)phenyl)isonicotinamide hydrochloride]	–	0.008 µM	–	0.0343 µM
Cc1cccc(C(=O)Nc2ccc(C3CNCCO3)cc2)c1 (racemic) [Example 277, (RS)-3-Methyl-N-(4-(morpholin-2-yl)phenyl)benzamide hydrochloride]	–	0.0036 µM	–	0.0472 µM
O=C(Nc1ccc(C2CNCCO2)cc1)c1ccc(N2CCCC2)nc1 (racemic) [Example 279, (RS)—N-(4-(Morpholin-2-yl)phenyl)-6-(pyrrolidin-1-yl)nicotinamide hydrochloride]	0.146 µM	0.0044 µM	–	–
O=C(Nc1ccc(C2CNCCO2)cc1)c1csc(-c2cnccn2)n1 (racemic) [Example 288, (RS)—N-(4-(Morpholin-2-yl)phenyl)-2-(pyrazin-2-yl)thiazole-4-carboxamide hydrochloride]	–	0.0075 µM	–	0.0278 µM
O=C(Nc1ccc(C2CNCCO2)cc1)Nc1ccc(C(F)(F)F)cc1 (racemic) [Example 291, (RS)-1-(4-(Morpholin-2-yl)phenyl)-3-(4-(trifluoromethyl)phenyl)urea hydrochloride]	0.0012 µM	–	0.0017 µM	–
O=C(Nc1ccc(Cl)cc1)Nc1ccc(C2CNCCO2)cc1 (racemic) [Example 292, (RS)-1-(4-Chlorophenyl)-3-(4-(morpholin-2-yl)phenyl)urea hydrochloride]	0.001 µM	0.001 µM	–	–
Cc1cc(C(=O)Nc2ccc(C3CNCCO3)cc2)ccn1 (racemic) [Example 294, (RS)-2-Methyl-N-(4-(morpholin-2-yl)phenyl)isonicotinamide dihydrochloride]	1.18 µM	0.0226 µM	–	–
Cc1nc(-c2cnccn2)sc1C(=O)Nc1ccc(C2CNCCO2)cc1 (racemic) [Example 298, (RS)-4-Methyl-N-(4-(morpholin-2-yl)phenyl)-2-(pyrazin-2-yl)thiazole-5-carboxamide hydrochloride]	–	0.0143 µM	–	0.0506 µM
O=C(Nc1ccc(C2CNCCO2)cc1)c1ccn(-c2ccccc2)n1 (racemic) [Example 299, (RS)—N-(4-(Morpholin-2-yl)phenyl)-1-phenyl-1H-pyrazole-3-carboxamide hydrochloride]	0.0022 µM	0.0014 µM	–	–
CCOc1cc(C(=O)Nc2ccc(C3CNCCO3)cc2)ccn1 (racemic) [Example 300, (RS)-2-Ethoxy-N-(4-(morpholin-2-yl)phenyl)isonicotinamide hydrochloride]	0.0726 µM	0.002 µM	–	–
O=C(Nc1ccc(C2CNCCO2)cc1)Nc1ccccc1Cl (racemic) [Example 305, (RS)-1-(2-Chlorophenyl)-3-(4-(morpholin-2-yl)phenyl)urea hydrochloride]	0.0266 µM	–	0.0038 µM	–

Second part, led by results:

Ki (mouse TAAR1; [1])	Ki (rat TAAR1; [2])	Compound	Ki (rat TAAR1)	Ki (mouse TAAR1)
0.335 µM	0.0941 µM	Cc1nc(C(=O)Nc2ccc(C3CNCCO3)cc2)cs1 (racemic) [Example 217, (RS)-2-Methyl-N-(4-(morpholin-2-yl)phenyl)thiazole-4-carboxamide hydrochloride]	–	–
0.0059 µM	0.0031 µM	O=C(Nc1ccc(C2CNCCO2)cc1)c1cnc(Cl)c(Cl)c1 (racemic) [Example 219, (RS)-5,6-Dichloro-N-(4-(morpholin-2-yl)phenyl)nicotinamide hydrochloride]	–	–
0.199 µM	0.0608 µM	CC1(COc2ccc(C(=O)Nc3ccc(C4CNCCO4)cc3)cc2)COC1 (racemic) [Example 228, (RS)-4-((3-Methyloxetan-3-yl)methoxy)-N-(4-(morpholin-2-yl)phenyl)benzamide]	–	–
0.15 µM	0.0317 µM	O=C(Nc1ccc(C2CNCCO2)cc1)c1ccc(OC2CCOCC2)nc1 (racemic) [Example 232, (RS)—N-(4-(Morpholin-2-yl)phenyl)-6-(tetrahydro-2H-pyran-4-yloxy)nicotinamide hydrochloride]	–	–
0.0008 µM	0.0014 µM	O=C(Nc1ccc(C2CNCCO2)cc1)c1csc(-c2ccccc2)n1 (racemic) [Example 233, (RS)—N-(4-(Morpholin-2-yl)phenyl)-2-phenylthiazole-4-carboxamide hydrochloride]	–	–
0.0649 µM	0.0063 µM	CCOc1ccc(C(=O)Nc2ccc(C3CNCCO3)cc2)cn1 (racemic) [Example 245, (RS)-6-Ethoxy-N-(4-(morpholin-2-yl)phenyl)nicotinamide hydrochloride]	–	–
0.0025 µM	0.0024 µM	O=C(Nc1ccc(C2CNCCO2)cc1)c1coc(-c2ccccc2)n1 (racemic) [Example 249, (RS)—N-(4-(Morpholin-2-yl)phenyl)-2-phenyloxazole-4-carboxamide hydrochloride]	–	–
0.0172 µM	0.0069 µM	O=C(Nc1ccc(C2CNCCO2)cc1)c1ccnc(C(F)(F)F)c1 (racemic) [Example 280, (RS)—N-(4-(Morpholin-2-yl)phenyl)-2-(trifluoromethyl)isonicotinamide hydrochloride]	–	–
0.0608 µM	0.324 µM	O=C(Nc1ccc(C2CNCCO2)cc1)c1csc(-c2ncccn2)n1 (racemic) [Example 290, (RS)—N-(4-(Morpholin-2-yl)phenyl)-2-(pyrimidin-2-yl)thiazole-4-carboxamide hydrochloride]	–	–
0.0074 µM	0.0014 µM	Cc1ccc(NC(=O)Nc2ccc(C3CNCCO3)cc2)cc1 (racemic) [Example 293, (RS)-1-(4-(Morpholin-2-yl)phenyl)-3-p-tolylurea hydrochloride]	–	–
0.235 µM	1.2 µM	Cc1cc(C(=O)Nc2ccc(C3CNCCO3)cc2)cc(C)n1 (racemic) [Example 295, (RS)-2,6-Dimethyl-N-(4-(morpholin-2-yl)phenyl)isonicotinamide dihydrochloride]	–	–
0.0645 µM	0.0847 µM	Cn1cc(-c2nc(C(=O)Nc3ccc(C4CNCCO4)cc3)cs2)cn1 (racemic) [Example 296, (RS)-2-(1-Methyl-1H-pyrazol-4-yl)-N-(4-(morpholin-2-yl)phenyl)thiazole-4-carboxamide hydrochloride]	–	–
0.0574 µM	0.0056 µM	O=C(Nc1ccc(C2CNCCO2)cc1)Nc1ccc(Cl)nc1 (racemic) [Example 302, (RS)-1-(6-Chloropyridin-3-yl)-3-(4-(morpholin-2-yl)phenyl)urea hydrochloride]	–	–
0.002 µM	0.0005 µM	O=C(Nc1ccc(C2CNCCO2)cc1)Nc1cccc(Cl)c1 (racemic) [Example 303, (RS)-1-(3-Chlorophenyl)-3-(4-(morpholin-2-yl)phenyl)urea hydrochloride]	–	–
0.0071 µM	0.0012 µM	Cc1cccc(NC(=O)Nc2ccc(C3CNCCO3)cc2)c1 (racemic) [Example 304, (RS)-1-(4-(Morpholin-2-yl)phenyl)-3-m-tolylurea hydrochloride]	–	–
